Tests used:
human GST-DYRK1A = biological target: T1, human GST-DYRK1A (Homo sapiens, UniProt Q13627); assay: GST-DYRK1A enzyme inhibition, ADP-Glo kinase assay; assay type: biochemical; settings: ATP 10 μM, GST-DYRK1A full length, read-out: DYRK1 IC50
T1 construct: purified human GST-DYRK1A (full length, Thermo Scientifics) enzyme; purchased Thermo Scientifics
Method in brief: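 Full-length enzyme (10 ng) was incubated with 10 μM ATP and a specific substrate for 1 h at 25 °C in 40 mM Tris-HCl pH 7.4, 20 mM MgCl2, 0.5 mg/mL BSA, 50 μM DTT. Luminescence was read against a solvent control, and IC50 values were derived from 3 data sets.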

human GST-CLK1 = biological target: T2, human GST-CLK1 (Homo sapiens, UniProt P49759); assay: GST-CLK1 enzyme inhibition, ADP-Glo kinase assay; assay type: biochemical; settings: ATP 10 μM, GST-CLK1 129-end
T2 construct: purified human GST-CLK1 (129-end, SignalChem) enzyme; purchased SignalChem
Method in brief: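 ADP-Glo luminescence read-out, relative to untreated solvent control, gave IC50 (nM) from triplicate data sets. Reactions ran an hour at 25° C with 3 ng GST-CLK1 (residues 129-end), 10 μM ATP and specific substrate in Tris-HCl pH 7.4 buffer with MgCl2, BSA and DTT.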

T2 sequence (P49759 129-484 limits assumed): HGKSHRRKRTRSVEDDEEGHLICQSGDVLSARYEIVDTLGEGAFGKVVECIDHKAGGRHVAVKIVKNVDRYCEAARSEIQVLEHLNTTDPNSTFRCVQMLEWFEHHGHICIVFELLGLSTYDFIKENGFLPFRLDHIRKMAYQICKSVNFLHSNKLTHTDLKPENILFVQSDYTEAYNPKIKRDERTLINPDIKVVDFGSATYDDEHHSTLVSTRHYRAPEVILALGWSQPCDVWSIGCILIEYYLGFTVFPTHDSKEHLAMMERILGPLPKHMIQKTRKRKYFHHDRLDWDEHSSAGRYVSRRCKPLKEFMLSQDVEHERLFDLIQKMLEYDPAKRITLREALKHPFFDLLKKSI

SMILES | IC50 (human GST-DYRK1A) [nM] | IC50 (human GST-CLK1) [nM]
CC(C)CNc1nc(Nc2ccc(C(=O)N3CCC(N4CCOCC4)CC3)c3c2OCC3)nc2[nH]cc(C#N)c12 [Example 351, 4-(isobutyl-amino)-2-((4-(4-morpholino-piperidine-1-carbonyl)-2,3-dihydro-benzofuran-7-yl)amino)-7H-pyrrolo[2,3-d]pyrimidine-5-carbonitrile] | 301 to 1000 | < 100
CC(C)Nc1nc(Nc2ccc(C(=O)N3CCOCC3)c3c2OCC3)nc2[nH]cc(C#N)c12 [Example 352, 4-(isopropyl-amino)-2-((4-(morpholine-4-carbonyl)-2,3-dihydro-benzofuran-7-yl)amino)-7H-pyrrolo[2,3-d]pyrimidine-5-carbonitrile] | 301 to 1000 | < 100
COCCNc1nc(Nc2ccc(C(=O)N3CCOCC3)c3c2OCC3)nc2[nH]cc(C#N)c12 [Example 358, 4-((2-methoxy-ethyl)ami-no)-2-((4-(morpholine-4-carbonyl)-2,3-dihydrobenzo-furan-7-yl)amino)-7H-pyrrolo[2,3-d]pyrimidine-5-carbonitrile] | 101 to 300 | 101 to 300
N#Cc1c[nH]c2nc(Nc3ccc(C(=O)N4CCOCC4)c4c3OCC4)nc(NC3CCC3)c12 [Example 360, 4-(cyclo-butylamino)-2-((4-(morpholine-4-carbonyl)-2,3-dihydrobenzo-furan-7-yl)amino)-7H-pyrrolo[2,3-d]pyrimidine-5-carbonitrile] | 101 to 300 | < 100
CC(C)Nc1nc(Nc2ccc(C(=O)N3CCC(N4CCOCC4)CC3)c3c2OCCO3)nc2[nH]cc(C(F)(F)F)c12 [Example 365, (8-((4-(isopropylamino)-5-(trifluoromethyl)-7H-pyrrolo[2,3-d]pyrimidin-2-yl)amino)-2,3-dihydrobenzo[b] [1,4]dioxin-5-yl) (4-morpholino-piperidin-1-yl)methanone] | < 100 | < 100
CCNc1nc(Nc2ccc(P(C)(C)=O)cc2OC)nc2[nH]cc(C(F)(F)F)c12 [Example 368, (4-((4-(ethylamino)-5-(trifluoromethyl)-7H-pyrrolo[2,3-d]pyrimidin-2-yl)amino)-3-methoxyphenyl) dimethyl-phosphine oxide] | 101 to 300 | < 100
CCCNc1nc(Nc2ccc(P(C)(C)=O)cc2OC)nc2[nH]cc(C(F)(F)F)c12 [Example 369, (3-methoxy-4-((4-(propylamino)-5-(trifluoromethyl)-7H-pyrrolo[2,3-d]pyrimidin-2-yl)amino)phenyl) dimethyl-phosphine oxide] | 101 to 300 | < 100
COc1cc(P(C)(C)=O)ccc1Nc1nc(NCC(C)C)c2c(C(F)(F)F)c[nH]c2n1 [Example 370, (4-((4-(isobutylamino)-5-(trifluoromethyl)-7H-pyrrolo[2,3-d]pyrimidin-2-yl)amino)-3-methoxyphenyl) dimethyl-phosphine oxide] | 301 to 1000 | < 100
COc1cc(P(C)(C)=O)ccc1Nc1nc(NC(C)C)c2c(C(F)(F)F)c[nH]c2n1 [Example 371, (4-((4-(isopropylamino)-5-(trifluoromethyl)-7H-pyrrolo[2,3-d]pyrimidin-2-yl)amino)-3-methoxyphenyl) dimethyl phosphine oxide] | 301 to 1000 | 101 to 300
CC[C@H](C)Nc1nc(Nc2ccc(S(=O)(=O)N3CCOCC3)cc2OC)nc2[nH]cc(C(F)(F)F)c12 [Example 379, (S)-N^4-(sec-butyl)-N^2-(2-methoxy-4-(morpholino-sulfonyl)phenyl)-5-(trifluoromethyl)-7H-pyrrolo[2,3-d]pyrimidine-2,4-diamine] | 301 to 1000 | 301 to 1000
CC[C@H](C)Nc1nc(Nc2ccc(S(C)(=O)=O)cc2OC)nc2[nH]cc(C(F)(F)F)c12 [Example 380, (S)-N^4-(sec-butyl)-N^2-(2-methoxy-4-(methylsulfonyl)phenyl)-5-(trifluoromethyl)-7H-pyrrolo[2,3-d]pyrimidine-2,4-diamine] | 301 to 1000 | 301 to 1000

Reference: patent US20230066011A1, “PYRROLOPYRIMIDINE DERIVATIVE, AND PHARMACEUTICAL COMPOSITION FOR PREVENTING OR TREATING PROTEIN KINASE-RELATED DISEASE COMPRISING SAME AS ACTIVE INGREDIENT” (VORONOI CO., LTD., priority 2019, published 2023)
